# Data published in patent publication US11312712B2, “Azabenzimidazoles and their use as AMPA receptor modulators” (Janssen Pharmaceutica NV, priority 2015, dated 2022).
# Target: GluA1o-γ8 (GRIA1o-CACNG8 fusion construct) (Homo sapiens (Human), UniProt P42261+Q8WXS5)
# Experiment: Calcium flux assay (FLIPR), inhibition of TARP γ8 dependent AMPA receptor activity
# Assay type: cell-based
# Conditions: GluA1o-γ8 (GRIA1o-CACNG8 fusion) in HEK293 cells, calcium flux after 15 μM glutamate
# Method in brief: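 HEK293 cells stably expressing a 1:1 GRIA1o–CACNG8 fusion were loaded with Calcium-5/6 dye plus compound in pH 7.4 HEPES-buffered saline. FLIPR calcium flux after 15 μM glutamate was normalized to untreated and 10 μM CP465022 controls, and a four-parameter logistic fit gave pIC50.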
# Sequence of GluA1o-γ8 (GRIA1o-CACNG8 fusion construct) (P42261 other isoform, or with tags, fused parts or gaps): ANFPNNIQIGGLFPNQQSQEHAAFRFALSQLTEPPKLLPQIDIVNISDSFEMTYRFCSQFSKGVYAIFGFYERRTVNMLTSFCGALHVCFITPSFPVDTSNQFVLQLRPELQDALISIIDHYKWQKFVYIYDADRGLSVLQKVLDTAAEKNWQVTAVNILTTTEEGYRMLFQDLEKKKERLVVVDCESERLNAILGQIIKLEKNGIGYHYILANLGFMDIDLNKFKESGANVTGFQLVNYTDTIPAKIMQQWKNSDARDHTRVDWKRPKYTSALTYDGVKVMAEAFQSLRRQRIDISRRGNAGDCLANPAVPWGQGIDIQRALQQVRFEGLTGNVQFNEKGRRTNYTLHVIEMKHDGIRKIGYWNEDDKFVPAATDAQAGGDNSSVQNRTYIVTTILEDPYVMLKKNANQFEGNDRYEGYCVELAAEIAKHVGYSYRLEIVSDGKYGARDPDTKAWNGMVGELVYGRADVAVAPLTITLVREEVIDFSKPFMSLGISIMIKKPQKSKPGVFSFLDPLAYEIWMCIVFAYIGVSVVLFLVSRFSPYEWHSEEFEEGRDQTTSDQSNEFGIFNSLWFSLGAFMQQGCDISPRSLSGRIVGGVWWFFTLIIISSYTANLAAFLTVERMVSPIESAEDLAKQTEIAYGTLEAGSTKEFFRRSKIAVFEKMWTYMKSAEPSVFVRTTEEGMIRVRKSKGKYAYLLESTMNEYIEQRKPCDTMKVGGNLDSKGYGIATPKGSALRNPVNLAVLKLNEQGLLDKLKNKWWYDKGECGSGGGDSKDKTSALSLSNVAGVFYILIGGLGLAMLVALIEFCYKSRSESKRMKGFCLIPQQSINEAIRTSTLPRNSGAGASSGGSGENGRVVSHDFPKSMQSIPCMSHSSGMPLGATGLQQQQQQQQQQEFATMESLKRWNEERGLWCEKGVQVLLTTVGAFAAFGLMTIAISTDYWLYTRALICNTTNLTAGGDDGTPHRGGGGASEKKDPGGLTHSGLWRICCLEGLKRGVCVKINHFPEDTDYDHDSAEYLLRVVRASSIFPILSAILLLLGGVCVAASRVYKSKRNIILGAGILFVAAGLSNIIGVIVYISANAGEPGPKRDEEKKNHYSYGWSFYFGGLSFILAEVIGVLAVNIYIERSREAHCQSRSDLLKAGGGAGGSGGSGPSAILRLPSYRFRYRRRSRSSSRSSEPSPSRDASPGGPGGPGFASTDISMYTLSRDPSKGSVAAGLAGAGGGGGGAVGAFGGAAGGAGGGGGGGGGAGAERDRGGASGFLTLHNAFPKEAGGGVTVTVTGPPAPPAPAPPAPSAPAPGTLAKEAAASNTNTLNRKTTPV
row,SMILES,IC50
1,"O=c1[nH]c2ccc(-n3c(C4CCOCC4)nc4ccc(C(F)(F)F)nc43)cc2o1 [Example 160, 6-[2-Tetrahydropyran-4-yl-5-(trifluoromethyl)imidazo[4,5-b]pyridin-3-yl]-3H-1,3-benzoxazol-2-one]",1 µM
2,"CCOCc1nc2ccc(C(F)(F)F)nc2n1-c1ccc2[nH]c(=O)oc2c1 [Example 162, 6-[2-(Ethoxymethyl)-5-(trifluoromethyl)imidazo[4,5-b]pyridin-3-yl]-3H-1,3-benzoxazol-2-one]",0.631 µM
3,"CC[C@H](C)c1nc2ccc(C(F)(F)F)nc2n1-c1ccc2[nH]ncc2c1 [Example 168, (S)-3-(1H-Indazol-5-yl)-2-sec-butyl-5-(trifluoromethyl)imidazo[4,5-b]pyridine]",0.00631 µM
4,"CC(C)(C)c1ccc2nc(C(F)(F)F)n(-c3ccc4[nH]ncc4c3)c2n1 [Example 171, 5-tert-Butyl-3-(1H-indazol-5-yl)-2-(trifluoromethyl)imidazo[4,5-b]pyridine]",0.00316 µM
5,"O=C(c1nc2ccc(C(F)(F)F)nc2n1-c1ccc2[nH]ncc2c1)N1CCCC1 [Example 173, [3-(1H-Indazol-5-yl)-5-(trifluoromethyl)imidazo[4,5-b]pyridin-2-yl]-pyrrolidin-1-yl-methanone]",10 µM
6,"FC(F)(F)c1ccc(-c2nc3cccnc3n2-c2ccc3[nH]ncc3c2)cc1 [Example 176, 3-(1H-Indazol-5-yl)-2-[4-(trifluoromethyl)phenyl]imidazo[4,5-b]pyridine]",10 µM
7,"FC(F)(F)Oc1ccc(-c2nc3cccnc3n2-c2ccc3[nH]ncc3c2)cc1 [Example 177, 3-(1H-Indazol-5-yl)-2-[4-(trifluoromethoxy)phenyl]imidazo[4,5-b]pyridine]",12.6 µM

# Results, then the molecule that gave them:
row,IC50,SMILES
1,0.0158 µM,"CC(C)c1nc2ccc(C(F)(F)F)nc2n1-c1ccc2[nH]c(=O)oc2c1 [Example 159, 6-[2-Isopropyl-5-(trifluoromethyl)imidazo[4,5-b]pyridin-3-yl]-3H-1,3-benzoxazol-2-one]"
2,0.158 µM,"CC(C)(C)c1nc2ccc(C(F)(F)F)nc2n1-c1ccc2[nH]c(=O)oc2c1 [Example 163, 6-[2-tert-Butyl-5-(trifluoromethyl)imidazo[4,5-b]pyridin-3-yl]-3H-1,3-benzoxazol-2-one]"
3,0.00126 µM,"O=C1Cc2cc(-n3c(-c4ccnc(F)c4)nc4ccc(C(F)(F)F)nc43)ccc2N1 [Example 164, 5-[2-(2-Fluoro-4-pyridyl)-5-(trifluoromethyl)imidazo[4,5-b]pyridin-3-yl]indolin-2-one]"
4,0.00158 µM,"Fc1cc(-c2nc3ccc(C(F)(F)F)nc3n2-c2ccc3[nH]ncc3c2)ccn1 [Example 165, 2-(2-Fluoro-4-pyridyl)-3-(1H-indazol-5-yl)-5-(trifluoromethyl)imidazo[4,5-b]pyridine]"
5,0.01 µM,"O=C1Cc2cc(-n3c(C4CC(F)C4)nc4ccc(C(F)(F)F)nc43)ccc2N1 (stereo not shown) [Example 166, 5-[2-(3-Fluorocyclobutyl)-5-(trifluoromethyl)imidazo[4,5-b]pyridin-3-yl]indolin-2-one]"
6,0.002 µM,"CC[C@@H](C)c1nc2ccc(C(F)(F)F)nc2n1-c1ccc2[nH]ncc2c1 [Example 167, (R)-3-(1H-Indazol-5-yl)-2-sec-butyl-5-(trifluoromethyl)imidazo[4,5-b]pyridine]"
7,0.00316 µM,"Fc1ccc(-c2nc3ccc(C(F)(F)F)nc3n2-c2ccc3[nH]ncc3c2)nc1 [Example 169, 2-(5-Fluoro-2-pyridyl)-3-(1H-indazol-5-yl)-5-(trifluoromethyl)imidazo[4,5-b]pyridine]"
8,0.000631 µM,"CC(C)c1ccc2nc(C(F)(F)F)n(-c3ccc4[nH]ncc4c3)c2n1 [Example 170, 3-(1H-Indazol-5-yl)-5-isopropyl-2-(trifluoromethyl)imidazo[4,5-b]pyridine]"
9,3.98 µM,"CC(C)NC(=O)c1nc2ccc(C(F)(F)F)nc2n1-c1ccc2[nH]ncc2c1 [Example 172, 3-(1H-Indazol-5-yl)-N-isopropyl-5-(trifluoromethyl)imidazo[4,5-b]pyridine-2-carboxamide]"
